In US4421912A, “Cephalosporin derivatives” (Takeda Chemical Industries, Ltd., priority 1973, dated 1983) one finds MIC and ED50 data, which are given here for 8 compounds.

One experiment relates to E. coli 0-111. As to the kind of experiment: Antibacterial spectra, agar dilution method. The class given is cell-based.
Source text: (§1) (mcg/ml., agar dilution method)
as §1
(§2) (mcg/ml, agar dilution method)
(§3) (mcg./ml., agar dilution method)
Background: In agar dilution the substance is mixed into plates at graded concentrations.

For a further experiment, the system named is E. coli NIHJ JC-2. As to the kind of experiment: Antibacterial spectra, agar dilution method. It is filed as cell-based. Conditions: Escherichia coli.
Source text: as §1, §1, §2, §3

Another experiment relates to S. aureus 1840. As to the kind of experiment: Antibacterial spectra, agar dilution method. It is filed as cell-based.
Source text: as §1, §1, §2, §3

For a further experiment, the system named is S. aureus 209P. As to the kind of experiment: Antibacterial spectra, agar dilution method. It is filed as cell-based. To be noted: Staphylococcus aureus, 209P.
Source text: as §1, §1, §2, §3

In the next experiment the test system is E. coli T-7. As to the kind of experiment: Antibacterial spectra, agar dilution method. The class given is cell-based. To be noted: Escherichia coli. The source says: (§4) |(mcg./ml., agar dilution method)
Another experiment deals with P. vulgaris IFO 3988. As to the kind of experiment: Antibacterial spectra, agar dilution method. It is filed as cell-based. To be noted: Proteus vulgaris.
Source text: as §4

In the next experiment the test system is K. pneumoniae DT. As to the kind of experiment: Antibacterial spectra, agar dilution method. It is filed as cell-based. Conditions: Klebsiella pneumoniae.
A further experiment has as its system P. morganii Eb53. As to the kind of experiment: Antibacterial spectra, agar dilution method. It is filed as cell-based. Conditions: Morganella morganii.
Source text: as §2, §3

For a further experiment, the system named is Escherichia coli 0111. As to the kind of experiment: Protective Effect on Infected Mice. The class given is in vivo. Conditions: Escherichia coli, 0111, sc, 168 h, male ICR/SLC mice, i.p. E. coli 0111, single subcutaneous dose immediately after challenge, 7 days. The source says:
Protective Effect (ED50 * , mg/kg) on Infected Mice
*Test animals: male mice (ICR/SLC) 5 mice per group per single dose
Infection: intraperitoneally with Escherichia coli 0111
Administration: a single subcutaneous dose immediately after challenge
Observation period: 7 days
*Test animals: male mice (ICR/SLC) 5 mice per group single dose

A further experiment has as its system P. vulgaris Eb-58. As to the kind of experiment: Antibacterial spectra, agar dilution method. The class given is cell-based. To be noted: Proteus vulgaris, EB58, tables in Examples 13 and 16.
Source text: as §1, §2

Where [1] appears, read: Escherichia coli, 0111, E. coli 0-111, Table 11.
The mark [2] stands for this setting: NIHJJC2, read-out: Antibacterial spectra, E. coli NIHJ JC-2, Table 11.
[3] abbreviates: Staphylococcus aureus, S. aureus 1840, Table 11, read-out: Antibacterial spectra.
[4] abbreviates: read-out: Antibacterial spectra, S. aureus 209P, Table 11.
[5] abbreviates: T7, E. coli T-7, agar dilution method, Table 11, read-out: Antibacterial spectra.
[6] abbreviates: IFO3988, P. vulgaris IFO 3988, agar dilution method, Table 11, read-out: Antibacterial spectra.
Setting [7] is: EB53, read-out: Antibacterial spectra.
The mark [8] stands for this setting: Table 12, read-out: Protective Effect (ED50) on Infected Mice.
Where [9] appears, read: Staphylococcus aureus, 1840, read-out: Antibacterial spectra, S. aureus 1840, Table 11.
Setting [10] is: T7, read-out: Antibacterial spectra.

In brackets after ≈: the same amount, converted by molar mass. Read-outs that look alike come from different tables or passages of the source.

Usually ED50 stands for the dose at which the effect has come halfway, by size or by number of responders. Regarding `Nc1nc(CC(=O)NC2C(=O)N3C(C(=O)O)=C(CSc4nnc(CC(=O)O)s4)CSC23)cs1` (stereo not drawn) [Compound 19, disodium 7-[2-(2-aminothiazol-4-yl)acetamido]-3-(2-carboxymethyl-1,3,4-thiadiazol-5-yl)thiomethyl-3-cephem-4-carboxylate], the MIC with E. coli 0-111 (setting [1]) is at most 0.2 µg/mL; in the experiment with E. coli NIHJ JC-2 (setting [2]), 0.78 µg/mL; in the experiment on S. aureus 1840 (setting [3]), 3.13 µg/mL; with S. aureus 209P (setting [4]) it was 0.78 µg/mL; in the experiment with E. coli T-7 (setting [5]), 25 µg/mL; in the experiment on P. vulgaris IFO 3988 (setting [6]), at most 0.2 µg/mL. For the same compound, the MIC was at most 0.2 µg/mL against K. pneumoniae DT (Table 11) and 0.78 µg/mL with P. morganii Eb53 (setting [7]). The ED50 in the experiment on Escherichia coli 0111 (setting [8]) is under 0.625 mg/kg.

Regarding `Nc1nc(CC(=O)NC2C(=O)N3C(C(=O)O)=C(CSc4nnc(SCC(=O)O)s4)CSC23)cs1` (stereo not drawn) [Compound 15], the MIC in the experiment on E. coli 0-111 (setting [1]) was at most 0.2 µg/mL; in the experiment on E. coli NIHJ JC-2 (setting [2]), 0.78 µg/mL (≈ 1.39 µM); with S. aureus 1840 (setting [9]), 1.56 µg/mL (≈ 2.78 µM); with S. aureus 209P (setting [4]), 0.78 µg/mL (≈ 1.39 µM); in the experiment with E. coli T-7 (setting [5]), 25 µg/mL (≈ 44.6 µM); with P. vulgaris IFO 3988 (setting [6]), at most 0.2 µg/mL. For the same compound, the MIC with K. pneumoniae DT (Table 11) is at most 0.2 µg/mL; with P. morganii Eb53 (P. morganii Eb53, agar dilution method, Table 11, read-out: Antibacterial spectra), 3.13 µg/mL (≈ 5.58 µM). Also, the ED50 in the experiment on Escherichia coli 0111 (Table 13, read-out: ED50) was under 0.625 mg/kg.

Consider `CN(C)CCNc1nnc(SCC2=C(C(=O)O)N3C(=O)C(NC(=O)Cc4csc(N)n4)C3SC2)s1` (stereo not drawn) [Compound 18], for which the MIC was at most 0.2 µg/mL in the experiment on E. coli 0-111 (setting [1]); 0.78 µg/mL (≈ 1.4 µM) in the experiment with E. coli NIHJ JC-2 (setting [2]); 3.13 µg/mL (≈ 5.62 µM) in the experiment with S. aureus 1840 (setting [3]); 1.56 µg/mL (≈ 2.8 µM) in the experiment with S. aureus 209P (setting [4]); 6.25 µg/mL (≈ 11.2 µM) in the experiment on E. coli T-7 (setting [10]); 1.56 µg/mL (≈ 2.8 µM) with P. vulgaris IFO 3988 (setting [6]). The MIC in the experiment on K. pneumoniae DT (Table 11) is at most 0.2 µg/mL; in the experiment on P. morganii Eb53 (setting [7]), 1.56 µg/mL (≈ 2.8 µM). In addition, in the experiment on Escherichia coli 0111 (Table 13, read-out: ED50), the ED50 is under 0.625 mg/kg.

As to `Cn1nnnc1SCC1=C(C(=O)O)N2C(=O)C(NC(=O)Cc3csc(N)n3)C2SC1` (stereo not drawn) [Example 16, sodium 7-[2-(2-aminothiazol-4-yl)acetamido]-3-(1-methyltetrazol-5-yl)thiomethyl-3-cephem-4-carboxylate], the MIC was 0.2 µg/mL in the experiment on E. coli 0-111 (Escherichia coli, 0111, E. coli 0-111, tables in the Examples); 0.39 µg/mL in the experiment with E. coli NIHJ JC-2 (NIHJJC2, read-out: Antibacterial spectra, E. coli NIHJ JC-2, tables in the Examples); 0.78 µg/mL with S. aureus 1840 (Staphylococcus aureus, 1840, read-out: Antibacterial spectra, S. aureus 1840, tables in the Examples); 0.39 µg/mL in the experiment on S. aureus 209P (read-out: Antibacterial spectra, S. aureus 209P, tables in the Examples); under 0.1 µg/mL with K. pneumoniae DT (tables in the Examples); 0.39 µg/mL in the experiment with P. vulgaris Eb-58. Moreover, the MIC in the experiment with P. morganii Eb53 (P. morganii Eb53, agar dilution method, table in Example 16, read-out: Antibacterial spectra) is 3.12 µg/mL. In addition, the ED50 in the experiment with Escherichia coli 0111 (Table 14, read-out: ED50) stood at 0.89 mg/kg.

In the case of `CC(=O)OCCSc1nnc(SCC2=C(C(=O)[O-])N3C(=O)C(NC(=O)Cc4csc(N)n4)[C@H]3SC2)s1.[Na+]` (stereo partly drawn) [Compound 11, sodium 7-[2-(2-aminothiazol-4-yl)acetamido]-3-[2-(2-acetoxyethylthio)-1,3,4-thiadiazol-5-yl]thiomethyl-3-cephem-4-carboxylate], the ED50 in the experiment with Escherichia coli 0111 (setting [8]) was under 0.625 mg/kg.

For `CN(C)CCSc1nnc(SCC2=C(C(=O)O)N3C(=O)C(NC(=O)Cc4csc(N)n4)C3SC2)s1` (stereo not drawn) [Compound 9], the MIC was 0.39 µg/mL (≈ 0.68 µM) against E. coli 0-111 (setting [1]); 1.56 µg/mL (≈ 2.72 µM) in the experiment with E. coli NIHJ JC-2 (NIHJJC2, E. coli NIHJ JC-2, Table 11, read-out: Antibacterial spectra); 0.78 µg/mL (≈ 1.36 µM) with S. aureus 1840 (setting [9]); at most 0.2 µg/mL in the experiment on S. aureus 209P (setting [4]); 50 µg/mL (≈ 87.1 µM) in the experiment with E. coli T-7 (setting [5]); 6.25 µg/mL (≈ 10.9 µM) in the experiment with P. vulgaris IFO 3988 (IFO3988, read-out: Antibacterial spectra). Further, the MIC in the experiment with K. pneumoniae DT (Table 11) was at most 0.2 µg/mL; in the experiment on P. morganii Eb53 (setting [7]), under 0.2 µg/mL. Further, the ED50 in the experiment with Escherichia coli 0111 (setting [8]) was 0.812 mg/kg.

As to `NC(=O)Cc1nnc(SCC2=C(C(=O)[O-])N3C(=O)C(NC(=O)Cc4csc(N)n4)[C@H]3SC2)s1.[Na+]` (stereo partly drawn) [Compound 21, sodium 7-[2-(2-aminothiazol-4-yl)acetamido]-3-(2-carbamoylmethyl-1,3,4-thiadiazol-5-yl)thiomethyl-3-cephem-4-carboxylate], the MIC against E. coli 0-111 (setting [1]) is at most 0.2 µg/mL; in the experiment on E. coli NIHJ JC-2 (setting [2]) it was 0.39 µg/mL; in the experiment on S. aureus 1840 (setting [9]) it was 1.56 µg/mL; with S. aureus 209P (setting [4]), at most 0.2 µg/mL; in the experiment with E. coli T-7 (setting [10]), 25 µg/mL; with P. vulgaris IFO 3988 (setting [6]) it was at most 0.2 µg/mL. Moreover, the MIC against K. pneumoniae DT (Table 11) was at most 0.2 µg/mL; with P. morganii Eb53 (setting [7]), 0.78 µg/mL. Moreover, in the experiment on Escherichia coli 0111 (setting [8]), the ED50 is under 0.625 mg/kg.

`Nc1nc(CC(=O)NC2C(=O)N3C(C(=O)O)=C(CSc4nnc(NCCO)s4)CSC23)cs1` (stereo not drawn) [Compound 17]: the MIC with E. coli 0-111 (setting [1]) was at most 0.2 µg/mL; in the experiment with E. coli NIHJ JC-2 (setting [2]), 0.39 µg/mL (≈ 0.736 µM); with S. aureus 1840 (setting [3]), 3.13 µg/mL (≈ 5.91 µM); in the experiment with S. aureus 209P (setting [4]), 0.39 µg/mL (≈ 0.736 µM); with E. coli T-7 (setting [10]), 12.5 µg/mL (≈ 23.6 µM); in the experiment with P. vulgaris IFO 3988 (setting [6]), 0.39 µg/mL (≈ 0.736 µM). Also, the MIC was at most 0.2 µg/mL in the experiment with K. pneumoniae DT (Table 11) and 0.78 µg/mL (≈ 1.47 µM) in the experiment on P. morganii Eb53 (setting [7]). In the experiment on Escherichia coli 0111 (Table 13, read-out: ED50), the ED50 was under 0.625 mg/kg.
